Columns and labels:
[1] = test system: metabolism of retinoic acid in human breast cancer cells; experiment: Inhibition of retinoic acid (RA) metabolism (Example C.1); type: cell-based; settings: MCF-7 human breast cancer cells, 3H-RA as substrate, concentration needed to reduce the amount of metabolites to 50% of the control
Procedure, shortened: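 Test compound (in 1% DMSO) added at several concentrations to MCF-7 cell suspensions fed ³H-RA, after RA induction of metabolism one day earlier. Scintillation counting of the separated polar metabolite fraction; IC50 = concentration giving 50% of control metabolite level.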

Ovariectomized rats = experiment: Vaginal keratinization test on ovariectomized rats (Example C.2); type: in vivo; settings: estradiol undecylate induced keratinization, per os once daily on days 1-3, active dose = 50% of rats show complete suppression; for minimal effective dose: Rattus norvegicus, po, read-out: LAD (lowest active dose)
Procedure, shortened: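 Value is the lowest oral dose (mg/kg) at which half of tested rats show complete suppression of estradiol undecylate-induced vaginal keratinization by histology. Ovariectomized rats received 100 μg/100 g estradiol undecylate s.c., then compound or PEG 200 vehicle p.o. daily for three days; sacrifice one day later.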

SMILES: C/C(=C\c1ccsc1)C(=O)Nc1ccc(C(C(C)C)n2ccnc2)cc1 (racemic) [Compound 596]
- IC50 [1]: 7.92 nM
- LAD (lowest active dose) (Ovariectomized rats): 10.00 mg/kg

SMILES: C=C(C)C(=O)Nc1ccc(C(C(C)C)n2ccnc2)cc1 (racemic) [Compound 597]
- IC50 [1]: 5 nM
- LAD (lowest active dose) (Ovariectomized rats): >10.00 mg/kg

SMILES: C/C(=C\c1ccc2[nH]c(=O)ccc2c1)C(=O)Nc1ccc(C(C(C)C)n2ccnc2)cc1 (racemic) [Compound 598]
- IC50 [1]: 23.9 nM
- LAD (lowest active dose) (Ovariectomized rats): >10.00 mg/kg

SMILES: C/C(=C\c1ccc2nn(C)nc2c1)C(=O)Nc1ccc(C(C(C)C)n2ccnc2)cc1 (racemic) [Compound 599]
- IC50 [1]: 6.36 nM
- LAD (lowest active dose) (Ovariectomized rats): >20.00 mg/kg

SMILES: C/C(=C\c1ccc(C)o1)C(=O)Nc1ccc(C(C(C)C)n2ccnc2)cc1 (racemic) [Compound 601]
- IC50 [1]: 20 nM
- LAD (lowest active dose) (Ovariectomized rats): 10.00 mg/kg

SMILES: C/C(=C\c1ccc2nnn(C)c2c1)C(=O)Nc1ccc(C(C(C)C)n2ccnc2)cc1 (racemic) [Compound 602]
- IC50 [1]: 25.7 nM
- LAD (lowest active dose) (Ovariectomized rats): >10.00 mg/kg

SMILES: C/C(=C\c1cc(=O)[nH]c2ccccc12)C(=O)Nc1ccc(C(C(C)C)n2ccnc2)cc1 (racemic) [Compound 603]
- IC50 [1]: > 100 nM
- LAD (lowest active dose) (Ovariectomized rats): >10.00 mg/kg

SMILES: C/C(=C\c1ccccn1)C(=O)Nc1ccc(C(C(C)C)n2ccnc2)cc1 (racemic) [Compound 604]
- IC50 [1]: 2.89 nM
- LAD (lowest active dose) (Ovariectomized rats): >10.00 mg/kg

SMILES: CC(=Cc1cccn1C)C(=O)Nc1ccc(C(C(C)C)n2ccnc2)cc1 (racemic) [Compound 605]
- IC50 [1]: 14 nM
- LAD (lowest active dose) (Ovariectomized rats): >10.00 mg/kg

SMILES: CCOc1c(F)c(F)c(/C=C(\C)C(=O)Nc2ccc(C(C(C)C)n3ccnc3)cc2)c(F)c1F (racemic) [Compound 606]
- IC50 [1]: 13.6 nM
- LAD (lowest active dose) (Ovariectomized rats): >10.00 mg/kg

SMILES: C/C(=C\c1ccc(F)c(Br)c1)C(=O)Nc1ccc(C(C(C)C)n2ccnc2)cc1 (racemic) [Compound 608]
- IC50 [1]: 6.61 nM
- LAD (lowest active dose) (Ovariectomized rats): >10.00 mg/kg

SMILES: C/C(=C\c1ccc(C(F)(F)F)cc1F)C(=O)Nc1ccc(C(C(C)C)n2ccnc2)cc1 (racemic) [Compound 609]
- IC50 [1]: 10.9 nM
- LAD (lowest active dose) (Ovariectomized rats): 10.00 mg/kg

SMILES: C/C(=C\c1ccc([N+](=O)[O-])cc1)C(=O)Nc1ccc(C(C(C)C)n2ccnc2)cc1 (racemic) [Compound 610]
- IC50 [1]: 6.53 nM
- LAD (lowest active dose) (Ovariectomized rats): >10.00 mg/kg

SMILES: C/C(=C\c1ccc(N)cc1)C(=O)Nc1ccc(C(C(C)C)n2ccnc2)cc1 (racemic) [Compound 611, (±)-(E)-2-[(4-aminophenyl)methylene]-N-[4-[1-(1H-imidazol-1-yl)-2-methylpropyl]phenyl]propanamide]
- IC50 ([1]; MCF7): 3.42 nM
- minimal effective dose (Ovariectomized rats): 10 mg/kg

SMILES: O=C(Cc1ccccc1)Nc1ccc(C(c2cccc(C(F)(F)F)c2)n2cncn2)cc1 (racemic) [Compound 614]
- IC50 [1]: 278 nM
- LAD (lowest active dose) (Ovariectomized rats): >20.00 mg/kg

SMILES: O=C(/C=C/c1ccccc1)Nc1ccc(C(c2cccc(F)c2)n2cncn2)cc1 (racemic) [Compound 618]
- IC50 [1]: 15.7 nM
- LAD (lowest active dose) (Ovariectomized rats): >20.00 mg/kg

SMILES: O=C(Cc1ccccc1)Nc1ccc(C(c2cccc(F)c2)n2cncn2)cc1 (racemic) [Compound 619]
- IC50 [1]: 35.7 nM
- LAD (lowest active dose) (Ovariectomized rats): >20.00 mg/kg

SMILES: CCC(CC)C(c1ccc(NC(=O)C2Oc3ccccc3O2)cc1)n1cncn1 (racemic) [Compound 621]
- IC50 [1]: 1.25 nM
- LAD (lowest active dose) (Ovariectomized rats): 1.25 mg/kg

SMILES: CC(C)(C)CC(c1ccc(NC(=O)Cc2ccc(Cl)cc2)cc1)n1cncn1 (racemic) [Compound 623]
- IC50 [1]: 1.38 nM
- LAD (lowest active dose) (Ovariectomized rats): >5.00 mg/kg

SMILES: CCCC(C)C(c1ccc(NC(=O)Cc2ccc(OC)c(OC)c2)cc1)n1cncn1 (racemic) [Compound 639]
- IC50 [1]: 1.68 nM
- LAD (lowest active dose) (Ovariectomized rats): 2.50 mg/kg

SMILES: CCCC(CCC)C(c1ccc(NC(=O)Cc2ccc(OC)c(OC)c2)cc1)n1cncn1 (racemic) [Compound 644]
- IC50 [1]: 0.296 nM
- LAD (lowest active dose) (Ovariectomized rats): 2.50 mg/kg

SMILES: CC(C)C(c1ccc(NC(=O)Cc2cccc(Cl)c2)cc1)n1ccnc1 (racemic) [Compound 652]
- IC50 [1]: > 100 nM
- LAD (lowest active dose) (Ovariectomized rats): 10.00 mg/kg

SMILES: CC(C)C(c1ccc(NC(=O)Cc2ccc(F)cc2)cc1)n1ccnc1 (racemic) [Compound 653]
- IC50 [1]: 1.34 nM
- LAD (lowest active dose) (Ovariectomized rats): 5.00 mg/kg

SMILES: CC(C)C(c1ccc(NC(=O)Cc2cccc(C(F)(F)F)c2)cc1)n1ccnc1 (racemic) [Compound 654]
- IC50 [1]: 2.34 nM
- LAD (lowest active dose) (Ovariectomized rats): 5.00 mg/kg

SMILES: CC(C)C(c1ccc(NC(=O)C(c2ccccc2)c2ccccc2)cc1)n1ccnc1 (racemic) [Compound 655]
- IC50 [1]: 16.1 nM
- LAD (lowest active dose) (Ovariectomized rats): >10.00 mg/kg

SMILES: CC(C)C(C(=O)Nc1ccc(C(C(C)C)n2ccnc2)cc1)c1ccccc1 (racemic) [Compound 658]
- IC50 [1]: 5.48 nM
- LAD (lowest active dose) (Ovariectomized rats): >10.00 mg/kg

SMILES: CCOc1ccc(CC(=O)Nc2ccc(C(C(C)C)n3ccnc3)cc2)cc1 (racemic) [Compound 663]
- IC50 [1]: 1.95 nM
- LAD (lowest active dose) (Ovariectomized rats): 2.50 mg/kg

SMILES: COc1cccc(CC(=O)Nc2ccc(C(C(C)C)n3ccnc3)cc2)c1 (racemic) [Compound 665]
- IC50 [1]: 5.91 nM
- LAD (lowest active dose) (Ovariectomized rats): 2.50 mg/kg

SMILES: Cc1ccc(CC(=O)Nc2ccc(C(C(C)C)n3ccnc3)cc2)cc1 (racemic) [Compound 666]
- IC50 [1]: 14.5 nM
- LAD (lowest active dose) (Ovariectomized rats): 2.50 mg/kg

SMILES: CC(C)C(c1ccc(NC(=O)Cc2cccc(O)c2)cc1)n1ccnc1 (racemic) [Compound 667]
- IC50 [1]: 1.57 nM
- LAD (lowest active dose) (Ovariectomized rats): 5.00 mg/kg

SMILES: C/C(=C\c1ccccc1)C(=O)Nc1ccc(C(c2cccnc2)C(C)C)cc1 (racemic) [Compound 679]
- IC50 [1]: > 1000 nM
- LAD (lowest active dose) (Ovariectomized rats): >20.00 mg/kg

SMILES: C/C(=C\c1ccccc1)C(=O)Nc1ccc(C(c2ccncc2)C(C)C)cc1 (racemic) [Compound 681]
- IC50 [1]: > 1000 nM
- LAD (lowest active dose) (Ovariectomized rats): >20.00 mg/kg

SMILES: CC(C)C(c1ccc(NC(=O)Cc2ccc(Cl)cc2)cc1)c1cccnc1 (racemic) [Compound 686]
- IC50 [1]: 43.1 nM
- LAD (lowest active dose) (Ovariectomized rats): >10.00 mg/kg

SMILES: CC(C)C(c1ccc(NC(=O)Nc2cccc(F)c2)cc1)c1cccnc1 (racemic) [Compound 690]
- IC50 [1]: > 100 nM
- LAD (lowest active dose) (Ovariectomized rats): >10.00 mg/kg

SMILES: CC(C)C(c1ccncc1)c1ccc(NC(=O)Nc2cccc(F)c2)cc1 (racemic) [Compound 692]
- IC50 [1]: 38 nM
- LAD (lowest active dose) (Ovariectomized rats): >10.00 mg/kg

SMILES: CNC(=S)Nc1ccc(C(C(C)C)n2ccnc2)cc1 (racemic) [Compound 696]
- IC50 [1]: 8.07 nM
- LAD (lowest active dose) (Ovariectomized rats): >10.00 mg/kg

SMILES: CC(C)C(c1ccc(NC(=S)Nc2ccccc2)cc1)n1ccnc1 (racemic) [Compound 697]
- IC50 [1]: 17.1 nM
- LAD (lowest active dose) (Ovariectomized rats): 10.00 mg/kg

SMILES: CC(C)C(c1ccc(NC(=S)NC(=O)c2ccccc2)cc1)n1ccnc1 (racemic) [Compound 698, (±)-N-benzoyl-N′-[4-[1-(1H-imidazol-1-yl)-2-methylpropyl]phenyl]thiourea]
- IC50 ([1]; MCF7): 39.6 nM
- minimal effective dose (Ovariectomized rats): 20 mg/kg

SMILES: CC(C)C(c1ccc(NC(=S)Nc2ccccc2F)cc1)n1ccnc1 (racemic) [Compound 700]
- IC50 [1]: 12 nM
- LAD (lowest active dose) (Ovariectomized rats): 5.00 mg/kg

SMILES: CCOc1ccc(NC(=O)Nc2ccc(C(C(C)C)n3ccnc3)cc2)cc1 (racemic) [Compound 707]
- IC50 [1]: 13 nM
- LAD (lowest active dose) (Ovariectomized rats): 5.00 mg/kg

SMILES: COc1ccc(NC(=O)Nc2ccc(C(C(C)C)n3ccnc3)cc2)cc1OC (racemic) [Compound 708]
- IC50 [1]: 1.61 nM
- LAD (lowest active dose) (Ovariectomized rats): >5.00 mg/kg

SMILES: O=C(Nc1ccc(C(c2cccc(C(F)(F)F)c2)n2ccnc2)cc1)Nc1cc(F)ccc1F (racemic) [Compound 709]
- IC50 [1]: 2.4 nM
- LAD (lowest active dose) (Ovariectomized rats): 5.00 mg/kg

SMILES: CCC(CC)C(c1ccc(NC(=O)Nc2cc(F)ccc2F)cc1)n1ccnc1 (racemic) [Compound 710]
- IC50 [1]: 0.188 nM
- LAD (lowest active dose) (Ovariectomized rats): 2.50 mg/kg

SMILES: O=C(Nc1ccc(C(c2cccc(C(F)(F)F)c2)n2cncn2)cc1)Nc1cccc(F)c1 (racemic) [Compound 711]
- IC50 [1]: > 100 nM
- LAD (lowest active dose) (Ovariectomized rats): 5.00 mg/kg

SMILES: CCC(CC)C(c1ccc(NC(=O)Nc2cc(F)ccc2F)cc1)n1cncn1 (racemic) [Compound 712]
- IC50 [1]: 0.0043 nM
- LAD (lowest active dose) (Ovariectomized rats): 5.00 mg/kg
